Results on one compound are retold here after US20240131044A1, “METHOD FOR TREATING CANCER” (M.T.3, Inc., priority 2022, published 2024).

Assay [1] concerns Melanoma developing cells (CML6M). The experiment in a line: Colony formation, survival fraction of canine melanoma cells. It is filed as cell-based. Here is the method: (§1) An anti-cancer agent and a pharmaceutical composition were administered to test cells and then the cells were cultured. Then, after colonies were formed, the number of colonies was counted. Here, samples in which the concentration of the anti-cancer agent to be administered was varied were prepared, and in each sample, the survival fraction of the cells compared with the case where cells were cultured without administration of the pharmaceutical composition was measured. Regarding the type of anti-cancer agent to be administered, a predetermined anti-cancer agent was selected depending on the type of administration target cells. Note that cells that were cultured without administration of the pharmaceutical composition and the anti-cancer agent were used as a control. Hereinafter, these steps will be described.
(§2) Here, CHO cells, V79 cells, and canine-derived cancer cells were prepared as the test cells. The CHO cells are ovarian cells derived from Chinese hamsters, and the V79 cells are fibroblasts derived from the lungs of Chinese hamsters. Melanoma developing cells (CML6M) and soft tissue sarcoma developing cells (STSA-1) were used as the cancer cells.
(§3) The cancer cells were prepared by being cultured using an αMEM culture medium supplemented with 10% serum and an antibiotic. The cancer cells were prepared such that, when the concentration of the cells in a cell suspension obtained by subjecting the cultured cells to PBS washing and trypsin treatment, the concentration was within a predetermined concentration range. Here, the predetermined concentration ranges were 300 cells/well, 100 to 150 cells/well, and 500 to 1000 cells/well for the CHO/V79 cells, the melanoma cells, and the soft tissue sarcoma cells, respectively.
(§4) Next, the cancer cells were cultured in culture environments to which the anti-cancer agent was added at various concentrations, and were then allowed to form colonies. The culture periods for colony formation were a week, 10 days, and 14 days for CHO and V79, melanoma, and soft tissue sarcoma, respectively. After colonies were formed, washing using a physiological saline solution, fixation using 100% ethanol, and staining using 0.1% crystal violet were performed, and then the number of colonies per well was counted under a microscope. Note that, here, the colony was defined as containing 50 or more cells. Moreover, mitomycin C, doxorubicin, bleomycin, camptothecin, etoposide, taxol, methyl methanesulfonate, and cisplatin were used as the anti-cancer agent.
(§5) A graph with the horizontal axis representing the concentration of the anti-cancer agent and the vertical axis representing the survival fraction was created by plotting the survival fraction measurement results relative to the SQAP administration amounts, and the effect of the addition of SQAP on the survival fraction was examined. Hereinafter, the results from each anti-cancer agent will be shown in a table and described.
Canine-derived melanoma cells and soft tissue sarcoma cells were used as the cells, and doxorubicin was used as the anti-cancer agent. […] Also, the concentration of the doxorubicin administered to the soft tissue sarcoma cells was set to 0 nM, 5 nM, 10 nM, and 15 nM. […] In Table 2, survival fractions in the case where SQAP was not administered are shown with a solid line, survival fractions in the case where SQAP was administered at a concentration of 10 μM are shown with a broken line, survival fractions in the case where SQAP was administered at a concentration of 20 μM are shown with a 1-dot chain line, and survival fractions in the case where SQAP was administered at a concentration of 30 μM are shown with a 2-dot chain line.
(§6) In the above examples, the anti-cancer agent and the pharmaceutical composition were administered to the test cells and then the cells were cultured. […]

For assay [2], the system named is CHO cells. The experiment in a line: Colony formation, survival fraction of CHO cells. It is filed as cell-based, Chinese hamsters. Here is the method:
as §1, §2, §3
as §4, with “Moreover, mitomycin C, doxorubicin, bleomycin, camptothecin, etoposide, taxol, methyl methanesulfonate, and cisplatin were used as the anti-cancer agent.” left out
In the above examples, the anti-cancer agent and the pharmaceutical composition were administered to the test cells and then the cells were cultured. In this example, test cells were cultured after administering pharmaceutical composition (SQAP) alone without administering the anti-cancer agent to the test cells, and then the number of colonies was counted after colonies were formed. […]

In assay [3] the test system is soft tissue sarcoma developing cells (STSA-1). The experiment in a line: Colony formation, survival fraction of canine soft tissue sarcoma cells. Type of assay: cell-based. Here is the method: as §1, §2, §3, §4, §5
Canine-derived melanoma cells and soft tissue sarcoma cells were used as the cells, and doxorubicin was used as the anti-cancer agent. The amount of the doxorubicin administered to the melanoma cell was set to 0 nM, 5 nM, 10 nM, 15 nM, 20 nM, and 25 nM. […] In Table 2, survival fractions in the case where SQAP was not administered are shown with a solid line, survival fractions in the case where SQAP was administered at a concentration of 10 μM are shown with a broken line, survival fractions in the case where SQAP was administered at a concentration of 20 μM are shown with a 1-dot chain line, and survival fractions in the case where SQAP was administered at a concentration of 30 μM are shown with a 2-dot chain line.
as §6

With `CCCCCCCCCCCCCCCCCC(=O)OCCCO[C@H]1O[C@H](CS(=O)(=O)O)[C@@H](O)[C@H](O)[C@H]1O` [SQAP, sulfoquinovosylacylpropanediol], the survival fraction result in assay [1] (melanoma cells, doxorubicin 15 nM + SQAP 10 μM) is “about 10%”; in assay [1] (melanoma cells, doxorubicin 15 nM + SQAP 20 μM), “about 3%”; in assay [1] (melanoma cells, doxorubicin 15 nM + SQAP 30 μM), “about 0.4%”; in assay [1] (melanoma developing cells, SQAP 10 μM alone), “about 90%”; in assay [1] (melanoma developing cells, SQAP 20 μM alone) it was “about 85%”; in assay [1] (melanoma developing cells, SQAP 30 μM alone) it was “about 60%”. The survival fraction result is given as “about 10%” in assay [1] (melanoma developing cells, doxorubicin 10 μM + SQAP 10 μM (as restated in Example 10)); “about 3%” in assay [1] (melanoma developing cells, doxorubicin 10 μM + SQAP 20 μM (as restated in Example 10)); “about 0.4%” in assay [1] (melanoma developing cells, doxorubicin 10 μM + SQAP 30 μM (as restated in Example 10)); “about 75%” in assay [2] (SQAP 30 μM alone); “about 1%” in assay [2] (mitomycin C 500 nM + SQAP 30 μM); “about 1%” in assay [2] (mitomycin C 500 μM + SQAP 30 μM (as restated in Example 10)). The survival fraction result in assay [3] (soft tissue sarcoma cells, doxorubicin 10 nM + SQAP 10 μM) is given as “about 2%”; in assay [3] (soft tissue sarcoma cells, doxorubicin 10 nM + SQAP 20 μM) it was “about 2%”; in assay [3] (soft tissue sarcoma cells, doxorubicin 10 nM + SQAP 30 μM), “about 0.7%”; in assay [3] (soft tissue sarcoma developing cells, SQAP 10 μM alone), “about 90%”; in assay [3] (soft tissue sarcoma developing cells, SQAP 20 μM alone), “about 75%”; in assay [3] (soft tissue sarcoma developing cells, SQAP 30 μM alone) it was “about 45%”. For the same compound, the survival fraction result is “about 2%” in assay [3] (soft tissue sarcoma developing cells, doxorubicin 10 μM + SQAP 10 μM (as restated in Example 10)); “about 2%” in assay [3] (soft tissue sarcoma developing cells, doxorubicin 10 μM + SQAP 20 μM (as restated in Example 10)); “about 0.7%” in assay [3] (soft tissue sarcoma developing cells, doxorubicin 10 μM + SQAP 30 μM (as restated in Example 10)).
